From patent US20240174618A1, “SUBSTITUTED (2-HETEROARYLOXYPHENYL)SULFONATES, SALTS THEREOF AND THEIR USE AS HERBICIDAL AGENTS” (Bayer Aktiengesellschaft, priority 2021, published 2024)

Key:
Type in all cases: in vivo
Veronica persica (VERPE) [1] = test: A. Herbicidal pre-emergence efficacy, VERPE
How it was run: (§1)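 Applied before emergence onto covering soil at rates of 1280 g/ha or less, using 600 L/ha spray water with 0.5% additive. Scoring: visual % efficacy after ~3 weeks, greenhouse.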

Setaria viridis (SETVI) = test: A. Herbicidal pre-emergence efficacy, SETVI
How it was run: as §1

[2] = test system: Amaranthus retroflexus (AMARE); test: B. Herbicidal post-emergence efficacy, AMARE
How it was run: (§2)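 Visual percent efficacy relative to untreated controls (0% unaffected, 100% dead), scored roughly 3 weeks after foliar spraying of one-leaf-stage pot-grown plants with WP or EC preparations at application rates up to 1280 g/ha in 600 L/ha water containing 0.5% additive.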

[3] = test system: Abutilon theophrasti (ABUTH); test: B. Herbicidal post-emergence efficacy, ABUTH; settings: rated visually after about 3 weeks
How it was run: as §2

[4] = test system: Abutilon theophrasti (ABUTH); test: A. Herbicidal pre-emergence efficacy, ABUTH; settings: 1280 g/ha; scored visually after about 3 weeks vs untreated controls
How it was run: as §1

[5] = test system: Matricaria inodora (MATIN); test: A. Herbicidal pre-emergence efficacy, MATIN; settings: pre-emergence, dosage 1280 g/ha
How it was run: as §1

[6] = test system: Echinochloa crus-galli (ECHCG); test: B. Herbicidal post-emergence efficacy, ECHCG; settings: 1280 g/ha, rated visually after about 3 weeks
How it was run: as §2

Kochia scoparia (KCHSC) [7] = test: A. Herbicidal pre-emergence efficacy, KCHSC; settings: pre-emergence, dosage 1280 g/ha
How it was run: as §1

Stellaria media (STEME) [8] = test: B. Herbicidal post-emergence efficacy, STEME
How it was run: as §2

[9] = test system: Alopecurus myosuroides (ALOMY); test: A. Herbicidal pre-emergence efficacy, ALOMY; settings: 1280 g/ha; scored visually after about 3 weeks vs untreated controls
Source text: Seeds of mono- and dicotyledonous weed plants were placed in plastic pots in sandy loam soil (doubly sown with one species each of mono- or dicotyledonous weed plants per pot) and covered with soil. The compounds of the invention, formulated in the form of wettable powders (WP) or as emulsion concentrates (EC), were then applied onto the surface of the covering soil as aqueous suspension or emulsion with addition of 0.5% additive at a water application rate of 600 liters per hectare (converted). After the treatment, the pots were placed in a greenhouse and kept under good growth conditions for the test plants. After about 3 weeks, the efficacy of the preparations was scored visually in comparison with untreated controls as percentages.
For example, • 100% efficacy=plants have died, • 0% efficacy=like untreated control plants.
Tables A1a to A12c below show the effects of selected compounds of the general formula (I) according to table 1 on various harmful plants at an application rate corresponding to 1280 g/ha or less, which were obtained by the experimental procedure mentioned above.

Veronica persica (VERPE) [10] = test: B. Herbicidal post-emergence efficacy, VERPE
How it was run: as §2

[11] = test system: Echinochloa crus-galli (ECHCG); test: A. Herbicidal pre-emergence efficacy, ECHCG; settings: 1280 g/ha; scored visually after about 3 weeks vs untreated controls
How it was run: as §1

Kochia scoparia (KCHSC) [12] = test: B. Herbicidal post-emergence efficacy, KCHSC; settings: 1280 g/ha
How it was run: as §2

[13] = test system: Amaranthus retroflexus (AMARE); test: A. Herbicidal pre-emergence efficacy, AMARE
How it was run: as §1

Poa annua (POAAN) [14] = test: A. Herbicidal pre-emergence efficacy, POAAN
How it was run: as §1

Poa annua (POAAN) [15] = test: B. Herbicidal post-emergence efficacy, POAAN; settings: 1280 g/ha
How it was run: as §2

Lolium rigidum (LOLRI) = test: A. Herbicidal pre-emergence efficacy, LOLRI; settings: dosage 1280 g/ha
How it was run: as §1

Stellaria media (STEME) [16] = test: A. Herbicidal pre-emergence efficacy, STEME; settings: dosage 1280 g/ha
How it was run: as §1

[17] = test system: Digitaria sanguinalis (DIGSA); test: A. Herbicidal pre-emergence efficacy, DIGSA; settings: scored visually after about 3 weeks vs untreated controls
How it was run: as §1

[18] = test system: Amaranthus retroflexus (AMARE); test: E. Herbicidal post-emergence efficacy, AMARE
Description: (§3) Seeds of monocotyledonous and dicotyledonous weeds and crop plants were placed in sandy loam in plastic or organic planting pots, covered with soil and cultivated in a greenhouse under controlled growth conditions. 2 to 3 weeks after sowing, the test plants were treated at the one-leaf stage. The compounds of the invention, formulated in the form of wettable powders (WP) or as emulsion concentrates (EC), were then sprayed onto the green parts of the plants as aqueous suspension or emulsion with addition of 0.5% additive at a water application rate of 600 l/ha (converted). After the test plants had been kept in the greenhouse under optimum growth conditions for about 3 weeks, the activity of the preparations was rated visually in comparison to untreated controls.
(§4) For example, • 100% efficacy=plants have died, • 0% action=like untreated control plants.
(§5) Tables E1a to E12b below show the effects of selected compounds of the general formula (I) according to table 1 on various harmful plants at an application rate corresponding to 320 g/ha or less, which were obtained by the experimental procedure mentioned above.

Viola tricolor (VIOTR) = test: E. Herbicidal post-emergence efficacy, VIOTR
Description: as §3, §4, §5

Zea mays (ZEAMX) [19] = test: F. Post-emergence effect on useful plants, ZEAMX; settings: useful plant
Description: as §3, §4
(§6) Tables F1a to F4 below show the effects of selected compounds of the general formula (I) according to table 1 on various useful plants at an application rate corresponding to 320 g/ha or less, which were obtained by the experimental procedure mentioned above.

Kochia scoparia (KCHSC) [20] = test: E. Herbicidal post-emergence efficacy, KCHSC
Description: as §3, §4, §5

[21] = test system: Triticum aestivum (TRZAS); test: F. Post-emergence effect on useful plants, TRZAS; settings: useful plant
Description: as §3, §4, §6

Zea mays (ZEAMX) [22] = test: D. Pre-emergence effect on useful plants, ZEAMX; settings: useful plant, application rate 80 g/ha
Source text: (§7) Seeds of monocotyledonous and dicotyledonous weed plants and crop plants were placed in plastic or organic planting pots and covered with soil. The compounds of the invention, formulated in the form of wettable powders (WP) or as emulsion concentrates (EC), were then applied to the surface of the covering soil as aqueous suspension or emulsion with addition of 0.5% additive at a water application rate equivalent to 600 l/ha (converted). After the treatment, the pots were placed in a greenhouse and kept under good growth conditions for the test plants. After about 3 weeks, the efficacy of the preparations was scored visually in comparison with untreated controls as percentages. For example, • 100% efficacy=plants have died, • 0% efficacy=like untreated control plants.
(§8) Tables D1a to D5b below show the effects of selected compounds of the general formula (I) according to table 1 on various useful plants at an application rate corresponding to 320 g/ha or less, which were obtained by the experimental procedure mentioned above.

Veronica persica (VERPE) [23] = test: E. Herbicidal post-emergence efficacy, VERPE
Description: as §3, §4, §5

[24] = test system: Amaranthus retroflexus (AMARE); test: C. Herbicidal pre-emergence efficacy, AMARE; settings: 320 g/ha, scored after about 3 weeks
Source text: as §7
Tables C1a to C14b below show the effects of selected compounds of the general formula (I) according to table 1 on various harmful plants at an application rate corresponding to 320 g/ha or less, which were obtained by the experimental procedure mentioned above.

[25] = test system: Triticum aestivum (TRZAS); test: D. Pre-emergence effect on useful plants, TRZAS; settings: useful plant
Source text: as §7, §8

Question: Cc1cccc(Oc2ncc(Br)cn2)c1OS(=O)(=O)CCCC(F)(F)F [Example I-35] was tested. Which “Pre-emergence efficacy against VERPE in %” value (Veronica persica (VERPE) [1]; 320 g/ha) did it give?
Answer: 90%

Question: What about the “Pre-emergence efficacy against VERPE in %” value (Veronica persica (VERPE) [1]; 1280 g/ha) of the same molecule?
Answer: 100%

Question: And the “Pre-emergence efficacy against SETVI” value (Setaria viridis (SETVI); dosage 320 g/ha)?
Answer: 100%

Question: And the “Pre-emergence efficacy against SETVI” value (Setaria viridis (SETVI); dosage 1280 g/ha)?
Answer: 100%

Question: What about the “Post-emergence efficacy against AMARE” value ([2]; 320 g/ha) of the same molecule?
Answer: 90%

Question: What about the “Post-emergence efficacy against AMARE” value ([2]; 1280 g/ha) of the same molecule?
Answer: 100%

Question: And the “Post-emergence efficacy against ABUTH in %” value ([3]; 320 g/ha)?
Answer: 100%

Question: What about the “Post-emergence efficacy against ABUTH in %” value ([3]; 1280 g/ha) of the same molecule?
Answer: 100%

Question: And the “Pre-emergence efficacy against ABUTH” value [4]?
Answer: 100%

Question: What about the “Pre-emergence efficacy against MATIN” value [5] of the same molecule?
Answer: 100%

Question: And the “Post-emergence efficacy against ECHCG in %” value [6]?
Answer: 90%

Question: And the “Pre-emergence efficacy against KCHSC” value (Kochia scoparia (KCHSC) [7])?
Answer: 90%

Question: What about the “Post-emergence efficacy against STEME” value (Stellaria media (STEME) [8]; 80 g/ha) of the same molecule?
Answer: 90%

Question: And the “Post-emergence efficacy against STEME” value (Stellaria media (STEME) [8]; 320 g/ha)?
Answer: 100%

Question: What about the “Post-emergence efficacy against STEME” value (Stellaria media (STEME) [8]; 1280 g/ha) of the same molecule?
Answer: 100%

Question: And the “Pre-emergence efficacy against ALOMY” value [9]?
Answer: 90%

Question: What about the “Post-emergence efficacy against VERPE” value (Veronica persica (VERPE) [10]; 80 g/ha) of the same molecule?
Answer: 90%

Question: And the “Post-emergence efficacy against VERPE” value (Veronica persica (VERPE) [10]; 320 g/ha)?
Answer: 90%

Question: What about the “Post-emergence efficacy against VERPE” value (Veronica persica (VERPE) [10]; 1280 g/ha) of the same molecule?
Answer: 100%

Question: What about the “Pre-emergence efficacy against ECHCG” value [11] of the same molecule?
Answer: 100%

Question: And the “Post-emergence efficacy against KCHSC” value (Kochia scoparia (KCHSC) [12])?
Answer: 100%

Question: And the “Pre-emergence efficacy against AMARE in %” value ([13]; 320 g/ha)?
Answer: 90%

Question: And the “Pre-emergence efficacy against AMARE in %” value ([13]; 1280 g/ha)?
Answer: 100%

Question: What about the “Pre-emergence efficacy against POAAN” value (Poa annua (POAAN) [14]; dosage 320 g/ha) of the same molecule?
Answer: 100%

Question: And the “Pre-emergence efficacy against POAAN” value (Poa annua (POAAN) [14]; dosage 1280 g/ha)?
Answer: 100%

Question: And the “Post-emergence efficacy against POAAN” value (Poa annua (POAAN) [15])?
Answer: 90%

Question: What about the “Pre-emergence efficacy against LOLRI” value (Lolium rigidum (LOLRI)) of the same molecule?
Answer: 100%

Question: And the “Pre-emergence efficacy against STEME” value (Stellaria media (STEME) [16])?
Answer: 100%

Question: What about the “Pre-emergence efficacy against DIGSA” value ([17]; 320 g/ha) of the same molecule?
Answer: 90%

Question: What about the “Pre-emergence efficacy against DIGSA” value ([17]; 1280 g/ha) of the same molecule?
Answer: 100%

Question: For N#Cc1cccc(Oc2ncc(Cl)cn2)c1OS(=O)(=O)CCC(F)(F)F [Example I-82], which “Post-emergence efficacy against AMARE in %” value ([18]; application rate 80 g/ha) is on record?
Answer: 90%

Question: What about the “Post-emergence efficacy against AMARE in %” value ([18]; application rate 320 g/ha) of the same molecule?
Answer: 100%

Question: What about the “Post-emergence efficacy against VIOTR in %” value (Viola tricolor (VIOTR); application rate 80 g/ha) of the same molecule?
Answer: 80%

Question: What about the “Post-emergence efficacy against VIOTR in %” value (Viola tricolor (VIOTR); application rate 320 g/ha) of the same molecule?
Answer: 80%

Question: And the “Post-emergence efficacy against ZEAMX in %” value (Zea mays (ZEAMX) [19]; application rate 80 g/ha)?
Answer: 0%

Question: And the “Post-emergence efficacy against ZEAMX in %” value (Zea mays (ZEAMX) [19]; application rate 320 g/ha)?
Answer: 20%

Question: What about the “Post-emergence efficacy against KCHSC in %” value (Kochia scoparia (KCHSC) [20]; application rate 80 g/ha) of the same molecule?
Answer: 90%

Question: What about the “Post-emergence efficacy against KCHSC in %” value (Kochia scoparia (KCHSC) [20]; application rate 320 g/ha) of the same molecule?
Answer: 90%

Question: What about the “Post-emergence efficacy against TRZAS in %” value ([21]; application rate 80 g/ha) of the same molecule?
Answer: 0%

Question: And the “Post-emergence efficacy against TRZAS in %” value ([21]; application rate 320 g/ha)?
Answer: 0%

Question: And the “Pre-emergence efficacy against ZEAMX in %” value (Zea mays (ZEAMX) [22])?
Answer: 0%

Question: And the “Post-emergence efficacy against VERPE in %” value (Veronica persica (VERPE) [23]; application rate 80 g/ha)?
Answer: 100%

Question: What about the “Post-emergence efficacy against VERPE in %” value (Veronica persica (VERPE) [23]; application rate 320 g/ha) of the same molecule?
Answer: 100%

Question: And the “Pre-emergence efficacy against AMARE” value [24]?
Answer: 80%

Question: What about the “Pre-emergence efficacy against TRZAS in %” value ([25]; application rate 80 g/ha) of the same molecule?
Answer: 0%

Question: And the “Pre-emergence efficacy against TRZAS in %” value ([25]; application rate 320 g/ha)?
Answer: 0%
